In data set [1] the test system is patients with unstable angina. As to conditions: during the 24 hour observation period; draflazine treated patients with unstable angina; cited from earlier work.
Data set [2] concerns mice. The note with it: acute pain stimulus; cited from earlier work.
The test system of data set [3] is rabbits. The note with it: acute pain stimulus; cited from earlier work.
Data set [4] concerns dogs. The note with it: acute pain stimulus; cited from earlier work.

With `CNC(=O)C1CN(CC(=O)Nc2c(Cl)cccc2C(C)=O)CCN1CCCC=C(c1ccc(F)cc1)c1ccc(F)cc1.O=C(O)C(=O)O.O=C(O)C(=O)O` (racemic) [Compound 18, (±)-N-(2-acetyl-6-chlorophenyl)-4-[5,5-bis(4-fluorophenyl)-4-pentenyl]-3-[(methylamino)carbonyl]-1-piperazineacetamide ethanedioate (1:2)], the melting point came to 140 °C.

`CNC(=O)C1CN(CC(=O)Nc2c(C)cc(C)cc2C)CCN1CCCC(c1ccc(F)cc1)c1ccc(F)cc1` (stereo not shown) [Compound 1, 4-[4,4-bis(4-fluorophenyl)butyl]-3-[(methylamino)-carbonyl]-N-(2,4,6-trimethylphenyl)-1-piperazineacetamide] returned a melting point of 82.3 °C.

`CNC(=O)C1CN(CCCC(c2ccc(F)cc2)c2ccc(F)cc2)CCN1CC(=O)Nc1c(C)cc(C)cc1C` (stereo not shown) [Compound 2, 4-[4,4-bis(4-fluorophenyl)butyl]-2-[(methylamino)carbonyl]-N-(2,4,6-trimethylphenyl)-1-piperazineacetamide] had a melting point of 90.2 °C.

Regarding `NC(=O)[C@@H]1CN(CCCCC(c2ccc(F)cc2)c2ccc(F)cc2)CCN1CC(=O)Nc1c(Cl)cc(N)cc1Cl` [Compound 13, S-(−)-2-(aminocarbonyl)-N-(4-amino-2,6-dichlorophenyl)-4-[5,5-bis(4-fluorophenyl)-pentyl]-1-piperazineacetamide], in data set [1], the “mean duration of chest pain” value is reported as 75.5 min.

Regarding `Cc1cccc(C)c1NC(=O)CN1CCN(CCCC(c2ccc(F)cc2)c2ccc(F)cc2)CC1` [lidoflazine], the “reaction time to thermal stimulation” value in data set [2] is “significantly increased”. For the same compound, in data set [3], the “pain treshold to electrical stimulation of incisor teeth” value was “increased”. Moreover, the “pain treshold to electrical stimulation of canine teeth” value in data set [4] is listed as “not”.

Broadly, the melting point is the temperature of the solid-liquid transition.
